# In US9512142B2, “Tricyclic triazolic compounds” (LABORATORIOS DEL DR. ESTEVE S.A., priority 2013, dated 2016):
# Where two headings read alike, the source gives them in different places.
# Assays:
# Kinetic solubility = format: physicochemical; conditions: buffered aqueous solution at pH=7.4, 10 μL of 10 mM DMSO solution in 1 mL, stirred 4 hours, supernatant by liquid chromatography, read-out: Kin. Solub.
# Method: To a buffered aqueous solution at pH=7.4 (1 mL), a 10 mM DMSO solution of the test compound (10 μL) was added and the mixture stirred for 4 hours. After centrifugation, the compound concentration in the supernatant was determined by liquid chromatography by fitting in a calibration curve of the compound.
# human sigma 1 receptor = target: T1, human sigma 1 receptor (Homo sapiens, UniProt Q99720); assay: Human sigma 1 receptor radioligand assay ([3H](+)-pentazocine, transfected HEK-293 membranes); format: binding; conditions: 5 nM [3H](+)-pentazocine, transfected HEK-293 membranes, 37° C., 120 minutes; read-out: Ki
# T1 construct: expressed in transfected cells; host or cells: HEK-293
# T1 sequence (Q99720 whole entry): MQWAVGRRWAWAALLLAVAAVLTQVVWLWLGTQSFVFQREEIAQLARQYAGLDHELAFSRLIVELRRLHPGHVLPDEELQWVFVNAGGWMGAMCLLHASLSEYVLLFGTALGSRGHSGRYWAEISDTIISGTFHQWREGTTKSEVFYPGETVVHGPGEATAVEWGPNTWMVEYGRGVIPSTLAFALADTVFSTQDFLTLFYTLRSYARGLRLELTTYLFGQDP
# Method: Human Sigma 1 Receptor Radioligand Assay
# The assay was carried out with 7 μg of membrane suspension, 5 nM of [^3H](+)-pentazocine in either absence or presence of either buffer or 10 μM Haloperidol for total and non-specific binding, respectively. Binding buffer contained Tris-HCl 50 mM at pH 8. Plates were incubated at 37° C. for 120 minutes. After the incubation period, the reaction mix was then transferred to MultiScreen HTS, FC plates (Millipore), filtered and plates were washed 3 times with ice-cold 10 mM Tris-HCL (pH7.4). Filters were dried and counted at approximately 40% efficiency in a MicroBeta scintillation counter (Perkin-Elmer) using EcoScint liquid scintillation cocktail.
# [1] = aqueous buffer, kinetic from dmso stock
# [2] = buffered aqueous solution, pH 7.4, aqueous buffer, kinetic from dmso stock
SMILES,solubility at 4 h (Kinetic solubility; [2]),solubility at 4 h (Kinetic solubility; [1]),also measured
"Cl.Fc1ccccc1-c1nnn2c1CO[C@@H]1CN(Cc3ccncc3)C[C@H]12 (racemic) [Example 2, (5aRS,8aRS)-3-(2-fluorophenyl)-7-(pyridin-4-ylmethyl)-4,5a,6,7,8,8a-hexahydropyrrolo[3,4-b][1,2,3]triazolo[1,5-d][1,4]oxazine hydrochloride]",,> 10 µM,Ki (human sigma 1 receptor): 315 nM
"Cl.Fc1ccccc1-c1nnn2c1CO[C@@H]1CN(Cc3ccccn3)C[C@H]12 (racemic) [Example 3, (5aRS,8aRS)-3-(2-fluorophenyl)-7-(pyridin-2-ylmethyl)-4,5a,6,7,8,8a-hexahydropyrrolo[3,4-b][1,2,3]triazolo[1,5-d][1,4]oxazine hydrochloride]",,> 10 µM,
"Cl.Fc1ccc(-c2nnn3c2CO[C@@H]2CN(Cc4ccoc4)C[C@H]23)cc1 (racemic) [Example 21, (5aRS,8aRS)-3-(4-fluorophenyl)-7-(furan-3-ylmethyl)-4,5a,6,7,8,8a-hexahydropyrrolo[3,4-b][1,2,3]triazolo[1,5-d][1,4]oxazine hydrochloride]",,> 10 µM,Ki (human sigma 1 receptor): 16.6 nM
"Cl.Fc1ccc(CN2C[C@@H]3[C@@H](C2)OCc2c(-c4ccncc4)nnn23)cc1 (racemic) [Example 26, (5aRS,8aRS)-7-(4-fluorobenzyl)-3-(pyridin-4-yl)-4,5a,6,7,8,8a-hexahydropyrrolo[3,4-b][1,2,3]triazolo[1,5-d][1,4]oxazine hydrochloride]",,> 10 µM,Ki (human sigma 1 receptor): 133 nM
"Cl.Fc1ccccc1-c1nnn2c1CO[C@@H]1CN(Cc3cccnc3)C[C@H]12 [Example 1, (5aR,8aR)-3-(2-fluorophenyl)-7-(pyridin-3-ylmethyl)-4,5a,6,7,8,8a-hexahydropyrrolo[3,4-b][1,2,3]triazolo[1,5-d][1,4]oxazine hydrochloride]",,> 20 µM,
"Cl.Fc1ccc(-c2nnn3c2CO[C@H]2CN(C4CCOCC4)C[C@@H]23)cc1 [Example 4, (5aS,8aS)-3-(4-fluorophenyl)-7-(tetrahydro-2H-pyran-4-yl)-4,5a,6,7,8,8a-hexahydropyrrolo[3,4-b][1,2,3]triazolo[1,5-d][1,4]oxazine hydrochloride]",,> 10 µM,Ki (human sigma 1 receptor): 23 nM
"Cl.Fc1ccc(-c2nnn3c2CO[C@@H]2CN(C4CCOCC4)C[C@H]23)cc1 [Example 5, (5aR,8aR)-3-(4-fluorophenyl)-7-(tetrahydro-2H-pyran-4-yl)-4,5a,6,7,8,8a-hexahydropyrrolo[3,4-b][1,2,3]triazolo[1,5-d][1,4]oxazine hydrochloride]",> 10 µM,,
"Cl.Fc1ccccc1-c1nnn2c1CO[C@H]1CN(C3CCOCC3)C[C@@H]12 [Example 6, (5aS,8aS)-3-(2-fluorophenyl)-7-(tetrahydro-2H-pyran-4-yl)-4,5a,6,7,8,8a-hexahydropyrrolo[3,4-b][1,2,3]triazolo[1,5-d][1,4]oxazine hydrochloride]",> 10 µM,,
"Cl.Fc1ccccc1-c1nnn2c1CO[C@@H]1CN(C3CCOCC3)C[C@H]12 [Example 7, (5aR,8aR)-3-(2-fluorophenyl)-7-(tetrahydro-2H-pyran-4-yl)-4,5a,6,7,8,8a-hexahydropyrrolo[3,4-b][1,2,3]triazolo[1,5-d][1,4]oxazine hydrochloride]",,> 10 µM,
"COc1ccc(-c2nnn3c2CO[C@H]2CN(C4CCOCC4)C[C@@H]23)cn1.Cl [Example 8, (5aS,8aS)-3-(6-methoxypyridin-3-yl)-7-(tetrahydro-2H-pyran-4-yl)-4,5a,6,7,8,8a-hexahydropyrrolo[3,4-b][1,2,3]triazolo[1,5-d][1,4]oxazine hydrochloride]",,> 10 µM,Ki (human sigma 1 receptor): 227 nM
"Cl.Fc1ccc(CN2C[C@@H]3[C@@H](C2)OCc2c(-c4ccccc4F)nnn23)cn1 [Example 11, (5aR,8aR)-3-(2-fluorophenyl)-7-((6-fluoropyridin-3-yl)methyl)-4,5a,6,7,8,8a-hexahydropyrrolo[3,4-b][1,2,3]triazolo[1,5-d][1,4]oxazine hydrochloride]",,> 10 µM,Ki (human sigma 1 receptor): 241 nM
"CCOc1ccc(CN2C[C@@H]3OCc4c(-c5ccccc5F)nnn4[C@H]3C2)cn1.Cl [Example 20, (5aS,8aS)-7-((6-ethoxypyridin-3-yl)methyl)-3-(2-fluorophenyl)-4,5a,6,7,8,8a-hexahydropyrrolo[3,4-b][1,2,3]triazolo[1,5-d][1,4]oxazine hydrochloride]",> 10 µM,,
"Cl.Fc1ccc(CN2C[C@@H]3OCc4c(-c5ccccn5)nnn4[C@H]3C2)cc1 [Example 25, (5aS,8aS)-7-(4-fluorobenzyl)-3-(pyridin-2-yl)-4,5a,6,7,8,8a-hexahydropyrrolo[3,4-b][1,2,3]triazolo[1,5-d][1,4]oxazine hydrochloride]",,> 10 µM,
"Cl.Fc1ccc(-c2nnn3c2CO[C@@H]2CN(C4CCOCC4)C[C@H]23)c(F)c1 [Example 28, (5aR,8aR)-3-(2,4-difluorophenyl)-7-(tetrahydro-2H-pyran-4-yl)-4,5a,6,7,8,8a-hexahydropyrrolo[3,4-b][1,2,3]triazolo[1,5-d][1,4]oxazine hydrochloride]",> 10 µM,,
"Cl.Fc1ccc(-c2nnn3c2CO[C@@H]2CN(CCC4CCOCC4)C[C@H]23)c(F)c1 [Example 40, (5aR,8aR)-3-(2,4-difluorophenyl)-7-(2-(tetrahydro-2H-pyran-4-yl)ethyl)-4,5a,6,7,8,8a-hexahydropyrrolo[3,4-b][1,2,3]triazolo[1,5-d][1,4]oxazine hydrochloride]",> 10 µM,,
"Cl.Fc1ccc(-c2nnn3c2CO[C@H]2CN(CCC4CCOCC4)C[C@@H]23)c(F)c1 [Example 41, (5aS,8aS)-3-(2,4-difluorophenyl)-7-(2-(tetrahydro-2H-pyran-4-yl)ethyl)-4,5a,6,7,8,8a-hexahydropyrrolo[3,4-b][1,2,3]triazolo[1,5-d][1,4]oxazine hydrochloride]",> 10 µM,,
"Cl.Clc1ccc(-c2nnn3c2CO[C@@H]2CN(CC4CCOCC4)C[C@H]23)c(Cl)c1 [Example 44, (5aR,8aR)-3-(2,4-dichlorophenyl)-7-((tetrahydro-2H-pyran-4-yl)methyl)-4,5a,6,7,8,8a-hexahydropyrrolo[3,4-b][1,2,3]triazolo[1,5-d][1,4]oxazine hydrochloride]",,> 10 µM,
"Cl.Clc1ccc(-c2nnn3c2CO[C@H]2CN(CC4CCOCC4)C[C@@H]23)c(Cl)c1 [Example 45, (5aS,8aS)-3-(2,4-dichlorophenyl)-7-((tetrahydro-2H-pyran-4-yl)methyl)-4,5a,6,7,8,8a-hexahydropyrrolo[3,4-b][1,2,3]triazolo[1,5-d][1,4]oxazine hydrochloride]",> 10 µM,,
"Cl.Fc1ccc(CN2C[C@@H]3[C@@H](C2)OCc2c(C4CCOCC4)nnn23)cc1 [Example 64, (5aR,8aR)-7-(4-fluorobenzyl)-3-(tetrahydro-2H-pyran-4-yl)-4,5a,6,7,8,8a-hexahydropyrrolo[3,4-b][1,2,3]triazolo[1,5-d][1,4]oxazine hydrochloride]",,> 10 µM,
"Cl.Fc1ccc(CN2C[C@@H]3OCc4c(C5CCOCC5)nnn4[C@H]3C2)cc1 [Example 65, (5aS,8aS)-7-(4-fluorobenzyl)-3-(tetrahydro-2H-pyran-4-yl)-4,5a,6,7,8,8a-hexahydropyrrolo[3,4-b][1,2,3]triazolo[1,5-d][1,4]oxazine hydrochloride]",> 10 µM,,
"Fc1ccc(CN2C[C@@H]3[C@@H](C2)OCc2c(-c4cccc(F)c4)nnn23)cc1 [drawing 121, reference compound]",,,solubility at 4 h (Kinetic solubility): 3.9 µM
Fc1ccc(CN2C[C@@H]3[C@@H](C2)OCc2c(-c4ccc(F)cc4F)nnn23)cc1 [reference compound],2.13 µM,,
Clc1cc(Cl)nc(N2CC3OCc4c(-c5ccccc5)nnn4[C@@H]3C2)n1 (stereo partly shown) [reference compound],< 1 µM,,

# The next lines start with results.
solubility at 4 h (Kinetic solubility; [2]),SMILES,solubility at 4 h (Kinetic solubility; [1]),also measured
> 10 µM,"Cl.Fc1ccc(CN2C[C@@H]3[C@@H](C2)OCc2c(-c4ccccn4)nnn23)cc1 [Example 24, (5aR,8aR)-7-(4-fluorobenzyl)-3-(pyridin-2-yl)-4,5a,6,7,8,8a-hexahydropyrrolo[3,4-b][1,2,3]triazolo[1,5-d][1,4]oxazine hydrochloride]",,
3.4 µM,"Fc1ccc(CN2C[C@@H]3[C@@H](C2)OCc2c(-c4cccc(F)c4)nnn23)cc1 [drawing 113, reference compound]",,
1.82 µM,Fc1ccc(-c2nnn3c2CO[C@@H]2CN(Cc4ccccc4)C[C@H]23)cc1 [reference compound],,
0.93 µM,Clc1ccc(-c2nnn3c2COC2CN(Cc4ccccc4)C[C@H]23)cc1 (stereo partly shown) [reference compound],,
7.8 µM,Clc1ccc(-c2nnn3c2CO[C@@H]2CN(Cc4ccccc4)C[C@H]23)c(Cl)c1 [reference compound],,
< 0.4 µM,FC(F)(F)c1ccc(-c2nnn3c2COC2CN(Cc4ccccc4)C[C@H]23)cc1 (stereo partly shown) [reference compound],,
2.1 µM,COc1ccc(-c2nnn3c2CO[C@H]2CN(Cc4ccccc4)C[C@@H]23)cc1 [reference compound],,
3.08 µM,Fc1ccc(CN2C[C@@H]3OCc4c(-c5ccccc5F)nnn4[C@H]3C2)cc1 [reference compound],,
